Laboratory results: patent publication US6806230B1, “Pyrimidine derivatives and herbicides containing them” (Kumiai Chemical Industry Co., Ltd., priority 1999, dated 2004)

How the values were obtained:
Assay type in all cases: in vivo
monochoria (Mo) = assay: Test Example 1: herbicidal effects by flooded paddy field treatment; design: herbicidal effects, Mo (monochoria):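 0-5 growth inhibition grade; 5 = over 90%; 4 = 70-90%; 3 = 50-70%; 2 = 30-50%; 1 = 10-30%; 0 = under 10%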; conditions: dose 100 g active ingredient per 10 ares, examined on the 21st day after treatment, standards of Table 44
Procedure, shortened: (§1)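 Herbicidal effect scored 21 days post-treatment after greenhouse cultivation. Treatment was applied dropwise to the water surface, one day after sowing, as a diluted wettable powder (100 g a.i./10 ares). Pots held puddled paddy soil under 3 cm water.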

barnyard grass (Eo) = assay: as above; design: herbicidal effects, Eo (barnyard grass):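 0-5 growth inhibition grade; 5 = over 90%; 4 = 70-90%; 3 = 50-70%; 2 = 30-50%; 1 = 10-30%; 0 = under 10%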; conditions: dose 100 g active ingredient per 10 ares, examined on the 21st day after treatment, standards of Table 44
Procedure, shortened: as §1

barnyard grass (Ec) [1] = assay: Test Example 2: herbicidal effects by upland soil treatment; design: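 0-5 growth inhibition grade; 5 = over 90%; 4 = 70-90%; 3 = 50-70%; 2 = 30-50%; 1 = 10-30%; 0 = under 10%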; conditions: dose 100 g active ingredient per 10 ares, examined on the 21st day after treatment
Procedure, shortened: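 Pre-emergence test: barnyard grass and green foxtail sown in upland soil, then soil surface sprayed with wettable-powder formulation at 100 g active ingredient per 10 ares (100 l per 10 ares). Grown in greenhouse; herbicidal effect scored on a rating scale 21 days after treatment.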

barnyard grass (Ec) [2] = assay: Test Example 3: herbicidal effects by foliage treatment in upland field; design: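 0-5 growth inhibition grade; 5 = over 90%; 4 = 70-90%; 3 = 50-70%; 2 = 30-50%; 1 = 10-30%; 0 = under 10%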; conditions: dose 100 g active ingredient per 10 ares, examined on the 14th day after treatment
Procedure: In a 80 cm^2 plastic pot, upland soil was filled, and seeds of barnyard grass (Ec) and green foxtail (Se) were sown and cultured in a green house for 2 weeks. Then, a wettable powder prepared in accordance with Formulation Example 1 was diluted with water and applied to the entire foliage from above the plants by means of a small size spray at a rate of 100 l per 10 ares so that the dose of the active ingredient would be 100 g per 10 ares. Thereafter, cultivation was carried out in a green house, and on the 14th day after the treatment, the herbicidal effects were examined in accordance with the standards of Table 44.

Compound: CN(C(=O)Cc1ccc(F)cc1)C(c1cncnc1C(F)(F)F)C1(C)CC1 (racemic) [1-410]
- herbicidal effects, Mo (monochoria) (monochoria (Mo)): 5
- herbicidal effects, Eo (barnyard grass) (barnyard grass (Eo)): 5
- Ec (herbicidal effects, index) (barnyard grass (Ec) [1]): 5
- Ec (herbicidal effects, index) (barnyard grass (Ec) [2]): 4

Compound: CN(C(=O)Cc1ccc(Cl)cc1)C(c1cncnc1C(F)(F)F)C1(C)CC1 (racemic) [1-411]
- herbicidal effects, Mo (monochoria) (monochoria (Mo)): 5
- herbicidal effects, Eo (barnyard grass) (barnyard grass (Eo)): 5
- Ec (herbicidal effects, index) (barnyard grass (Ec) [1]): 5
- Ec (herbicidal effects, index) (barnyard grass (Ec) [2]): 4

Compound: CC(C)C(c1cncnc1C(F)(F)F)N(C)C(=O)N(C)c1ccc(F)cc1 (racemic) [1-426]
- herbicidal effects, Mo (monochoria) (monochoria (Mo)): 5
- herbicidal effects, Eo (barnyard grass) (barnyard grass (Eo)): 5
- Ec (herbicidal effects, index) (barnyard grass (Ec) [1]): 5
- Ec (herbicidal effects, index) (barnyard grass (Ec) [2]): 4

Compound: CC(C)C(c1cncnc1C(F)(F)F)N(C)C(=O)N(C)c1ccc(Cl)cc1 (racemic) [1-427]
- herbicidal effects, Mo (monochoria) (monochoria (Mo)): 5
- herbicidal effects, Eo (barnyard grass) (barnyard grass (Eo)): 5
- Ec (herbicidal effects, index) (barnyard grass (Ec) [1]): 5
- Ec (herbicidal effects, index) (barnyard grass (Ec) [2]): 4

Compound: Cc1ccc(N(C)C(=O)N(C)C(c2cncnc2C(F)(F)F)C(C)C)cc1 (racemic) [1-428]
- herbicidal effects, Mo (monochoria) (monochoria (Mo)): 5
- herbicidal effects, Eo (barnyard grass) (barnyard grass (Eo)): 5
- Ec (herbicidal effects, index) (barnyard grass (Ec) [1]): 5
- Ec (herbicidal effects, index) (barnyard grass (Ec) [2]): 4

Compound: CC(C)c1ncncc1C(C(C)C)N(C)C(=O)N(C)c1ccc(Cl)cc1 (racemic) [1-430]
- herbicidal effects, Mo (monochoria) (monochoria (Mo)): 5
- herbicidal effects, Eo (barnyard grass) (barnyard grass (Eo)): 5
- Ec (herbicidal effects, index) (barnyard grass (Ec) [1]): 5
- Ec (herbicidal effects, index) (barnyard grass (Ec) [2]): 4

Compound: Cc1ccc(N(C)C(=O)N(C)C(c2cncnc2C(C)C)C(C)C)cc1 (racemic) [1-431]
- herbicidal effects, Mo (monochoria) (monochoria (Mo)): 5
- herbicidal effects, Eo (barnyard grass) (barnyard grass (Eo)): 5
- Ec (herbicidal effects, index) (barnyard grass (Ec) [1]): 5
- Ec (herbicidal effects, index) (barnyard grass (Ec) [2]): 4

Compound: CCc1ncncc1C(C(C)C)N(C)C(=O)Cc1ccccc1 (racemic) [1-432]
- herbicidal effects, Mo (monochoria) (monochoria (Mo)): 5
- herbicidal effects, Eo (barnyard grass) (barnyard grass (Eo)): 5
- Ec (herbicidal effects, index) (barnyard grass (Ec) [1]): 5
- Ec (herbicidal effects, index) (barnyard grass (Ec) [2]): 5

Compound: CCc1ncncc1C(C(C)C)N(C)C(=O)Cc1ccc(Cl)cc1 (racemic) [1-434]
- herbicidal effects, Mo (monochoria) (monochoria (Mo)): 5
- herbicidal effects, Eo (barnyard grass) (barnyard grass (Eo)): 5
- Ec (herbicidal effects, index) (barnyard grass (Ec) [1]): 5
- Ec (herbicidal effects, index) (barnyard grass (Ec) [2]): 4

Compound: CCc1ncncc1C(C(C)C)N(C)C(=O)Cc1ccc(C)cc1 (racemic) [1-435]
- herbicidal effects, Mo (monochoria) (monochoria (Mo)): 5
- herbicidal effects, Eo (barnyard grass) (barnyard grass (Eo)): 5
- Ec (herbicidal effects, index) (barnyard grass (Ec) [1]): 5
- Ec (herbicidal effects, index) (barnyard grass (Ec) [2]): 4

Compound: CCC(c1cncnc1C(C)C)N(C)C(=O)Cc1ccc(F)cc1 (racemic) [1-437]
- herbicidal effects, Mo (monochoria) (monochoria (Mo)): 5
- herbicidal effects, Eo (barnyard grass) (barnyard grass (Eo)): 5
- Ec (herbicidal effects, index) (barnyard grass (Ec) [1]): 5
- Ec (herbicidal effects, index) (barnyard grass (Ec) [2]): 4

Compound: CCCc1ncncc1C(C(C)C)N(C)C(=O)Cc1ccccc1 (racemic) [1-445]
- herbicidal effects, Mo (monochoria) (monochoria (Mo)): 5
- herbicidal effects, Eo (barnyard grass) (barnyard grass (Eo)): 5
- Ec (herbicidal effects, index) (barnyard grass (Ec) [1]): 5
- Ec (herbicidal effects, index) (barnyard grass (Ec) [2]): 5

Compound: CCCc1ncncc1C(C(C)C)N(C)C(=O)Cc1ccc(F)cc1 (racemic) [1-446]
- herbicidal effects, Mo (monochoria) (monochoria (Mo)): 5
- herbicidal effects, Eo (barnyard grass) (barnyard grass (Eo)): 5
- Ec (herbicidal effects, index) (barnyard grass (Ec) [1]): 5
- Ec (herbicidal effects, index) (barnyard grass (Ec) [2]): 5

Compound: CCCc1ncncc1C(C(C)C)N(C)C(=O)Cc1ccc(Cl)cc1 (racemic) [1-447]
- herbicidal effects, Mo (monochoria) (monochoria (Mo)): 5
- herbicidal effects, Eo (barnyard grass) (barnyard grass (Eo)): 5
- Ec (herbicidal effects, index) (barnyard grass (Ec) [1]): 5
- Ec (herbicidal effects, index) (barnyard grass (Ec) [2]): 5

Compound: CCCC(c1cncnc1C(C)C)N(C)C(=O)Cc1ccccc1 (racemic) [1-449]
- herbicidal effects, Mo (monochoria) (monochoria (Mo)): 5
- herbicidal effects, Eo (barnyard grass) (barnyard grass (Eo)): 5
- Ec (herbicidal effects, index) (barnyard grass (Ec) [1]): 5
- Ec (herbicidal effects, index) (barnyard grass (Ec) [2]): 4

Compound: CCCC(c1cncnc1C(C)C)N(C)C(=O)Cc1ccc(F)cc1 (racemic) [1-450]
- herbicidal effects, Mo (monochoria) (monochoria (Mo)): 5
- herbicidal effects, Eo (barnyard grass) (barnyard grass (Eo)): 5
- Ec (herbicidal effects, index) (barnyard grass (Ec) [1]): 5
- Ec (herbicidal effects, index) (barnyard grass (Ec) [2]): 4

Compound: CCCC(c1cncnc1C(C)C)N(C)C(=O)Cc1ccc(Cl)cc1 (racemic) [1-451]
- herbicidal effects, Mo (monochoria) (monochoria (Mo)): 5
- herbicidal effects, Eo (barnyard grass) (barnyard grass (Eo)): 5
- Ec (herbicidal effects, index) (barnyard grass (Ec) [1]): 5
- Ec (herbicidal effects, index) (barnyard grass (Ec) [2]): 4

Compound: CON=CC(c1cncnc1C(C)C)N(C)C(=O)Cc1ccc(F)cc1 (racemic) [1-463]
- herbicidal effects, Mo (monochoria) (monochoria (Mo)): 5
- herbicidal effects, Eo (barnyard grass) (barnyard grass (Eo)): 5
- Ec (herbicidal effects, index) (barnyard grass (Ec) [1]): 4
- Ec (herbicidal effects, index) (barnyard grass (Ec) [2]): 4

Compound: CON=CC(c1cncnc1C(C)C)N(C)C(=O)Cc1ccc(Cl)cc1 (racemic) [1-464]
- herbicidal effects, Mo (monochoria) (monochoria (Mo)): 5
- herbicidal effects, Eo (barnyard grass) (barnyard grass (Eo)): 5
- Ec (herbicidal effects, index) (barnyard grass (Ec) [1]): 5
- Ec (herbicidal effects, index) (barnyard grass (Ec) [2]): 4

Compound: CC(C)C(c1cncnc1C(F)(F)F)N(CC#N)C(=O)Cc1ccc(Cl)cc1 (racemic) [1-482]
- herbicidal effects, Mo (monochoria) (monochoria (Mo)): 5
- herbicidal effects, Eo (barnyard grass) (barnyard grass (Eo)): 5
- Ec (herbicidal effects, index) (barnyard grass (Ec) [1]): 5
- Ec (herbicidal effects, index) (barnyard grass (Ec) [2]): 5

Compound: COc1ccccc1C(c1cncnc1C(F)(F)F)N(C)C(=O)Cc1ccccc1 (racemic) [1-488]
- herbicidal effects, Mo (monochoria) (monochoria (Mo)): 5
- herbicidal effects, Eo (barnyard grass) (barnyard grass (Eo)): 5
- Ec (herbicidal effects, index) (barnyard grass (Ec) [1]): 5
- Ec (herbicidal effects, index) (barnyard grass (Ec) [2]): 5

Compound: CON=Cc1ncncc1C(C(C)C)N(C)C(=O)Cc1ccc(F)cc1 (racemic) [1-497]
- herbicidal effects, Mo (monochoria) (monochoria (Mo)): 5
- herbicidal effects, Eo (barnyard grass) (barnyard grass (Eo)): 5
- Ec (herbicidal effects, index) (barnyard grass (Ec) [1]): 5
- Ec (herbicidal effects, index) (barnyard grass (Ec) [2]): 4

Compound: CC(=O)c1ncncc1C(C(C)C)N(C)C(=O)Cc1ccccc1 (racemic) [1-526]
- herbicidal effects, Mo (monochoria) (monochoria (Mo)): 5
- herbicidal effects, Eo (barnyard grass) (barnyard grass (Eo)): 5
- Ec (herbicidal effects, index) (barnyard grass (Ec) [1]): 5
- Ec (herbicidal effects, index) (barnyard grass (Ec) [2]): 5

Compound: CC(C)C(c1cncnc1C(F)(F)F)N(C)C(=O)N(C)c1ccccc1F (racemic) [1-536]
- herbicidal effects, Mo (monochoria) (monochoria (Mo)): 5
- herbicidal effects, Eo (barnyard grass) (barnyard grass (Eo)): 5
- Ec (herbicidal effects, index) (barnyard grass (Ec) [1]): 5
- Ec (herbicidal effects, index) (barnyard grass (Ec) [2]): 4

Compound: CC(C)C(c1cncnc1C(F)(F)F)N(C)C(=O)N(C)c1ccc(F)cc1F (racemic) [1-537]
- herbicidal effects, Mo (monochoria) (monochoria (Mo)): 5
- herbicidal effects, Eo (barnyard grass) (barnyard grass (Eo)): 5
- Ec (herbicidal effects, index) (barnyard grass (Ec) [1]): 5
- Ec (herbicidal effects, index) (barnyard grass (Ec) [2]): 4

Compound: CCc1ncncc1C(C(C)C)N(C)C(=O)N(C)c1ccccc1 (racemic) [1-538]
- herbicidal effects, Mo (monochoria) (monochoria (Mo)): 5
- herbicidal effects, Eo (barnyard grass) (barnyard grass (Eo)): 5
- Ec (herbicidal effects, index) (barnyard grass (Ec) [1]): 5
- Ec (herbicidal effects, index) (barnyard grass (Ec) [2]): 4

Compound: CCc1ncncc1C(C(C)C)N(C)C(=O)N(C)c1ccc(F)cc1 (racemic) [1-539]
- herbicidal effects, Mo (monochoria) (monochoria (Mo)): 5
- herbicidal effects, Eo (barnyard grass) (barnyard grass (Eo)): 5
- Ec (herbicidal effects, index) (barnyard grass (Ec) [1]): 5
- Ec (herbicidal effects, index) (barnyard grass (Ec) [2]): 4

Compound: CCc1ncncc1C(C(C)C)N(C)C(=O)N(C)c1ccc(Cl)cc1 (racemic) [1-540]
- herbicidal effects, Mo (monochoria) (monochoria (Mo)): 5
- herbicidal effects, Eo (barnyard grass) (barnyard grass (Eo)): 5
- Ec (herbicidal effects, index) (barnyard grass (Ec) [1]): 5
- Ec (herbicidal effects, index) (barnyard grass (Ec) [2]): 4

Compound: CN(C(=O)Cc1ccccc1)C(c1ccccc1F)c1cncnc1C(F)(F)F (racemic) [1-546]
- herbicidal effects, Mo (monochoria) (monochoria (Mo)): 5
- herbicidal effects, Eo (barnyard grass) (barnyard grass (Eo)): 5
- Ec (herbicidal effects, index) (barnyard grass (Ec) [1]): 5
- Ec (herbicidal effects, index) (barnyard grass (Ec) [2]): 4

Compound: C#CCN(C(=O)Cc1ccc(Cl)cc1)C(c1cncnc1CC)C(C)C (racemic) [1-560]
- herbicidal effects, Mo (monochoria) (monochoria (Mo)): 5
- herbicidal effects, Eo (barnyard grass) (barnyard grass (Eo)): 5
- Ec (herbicidal effects, index) (barnyard grass (Ec) [1]): 5
- Ec (herbicidal effects, index) (barnyard grass (Ec) [2]): 4
